Assay results published in the NIST ThermoML archive (doi:10.1016/j.jct.2010.12.021).
± gives the expanded uncertainty stated by the source.

Assay: molar heat capacity at constant pressure
Details: 101.33 kPa, Crystal, Small sample (50 mg) DSC

With `CCCCCC[n+]1cccc2ccccc21.O=S(=O)([N-]S(=O)(=O)C(F)(F)F)C(F)(F)F` [1-hexylquinolinium bis(trifluoromethylsulfonyl)amide] the “molar heat capacity at constant pressure” value (240.51 K) was 351.35 ± 35 J/K/mol, the “molar heat capacity at constant pressure” value (241.11 K) was 352.21 ± 36 J/K/mol and the “molar heat capacity at constant pressure” value (241.71 K) was 353.05 ± 36 J/K/mol. The “molar heat capacity at constant pressure” value (242.31 K) was 353.86 ± 36 J/K/mol, the “molar heat capacity at constant pressure” value (242.91 K) was 354.74 ± 36 J/K/mol and the “molar heat capacity at constant pressure” value (243.51 K) was 355.63 ± 36 J/K/mol. For the same molecule, the “molar heat capacity at constant pressure” value (244.11 K) was 356.56 ± 36 J/K/mol, the “molar heat capacity at constant pressure” value (244.71 K) was 357.47 ± 36 J/K/mol and the “molar heat capacity at constant pressure” value (245.31 K) was 358.35 ± 36 J/K/mol. For the same molecule, the “molar heat capacity at constant pressure” value (245.91 K) was 359.26 ± 36 J/K/mol, the “molar heat capacity at constant pressure” value (246.51 K) was 360.13 ± 36 J/K/mol and the “molar heat capacity at constant pressure” value (247.11 K) was 360.95 ± 36 J/K/mol. The “molar heat capacity at constant pressure” value (247.71 K) was 361.75 ± 37 J/K/mol, the “molar heat capacity at constant pressure” value (248.31 K) was 362.5 ± 37 J/K/mol and the “molar heat capacity at constant pressure” value (248.91 K) was 363.25 ± 37 J/K/mol. The “molar heat capacity at constant pressure” value (249.51 K) was 363.98 ± 37 J/K/mol, the “molar heat capacity at constant pressure” value (250.11 K) was 364.75 ± 37 J/K/mol and the “molar heat capacity at constant pressure” value (250.71 K) was 365.53 ± 37 J/K/mol. For the same molecule, the “molar heat capacity at constant pressure” value (251.31 K) was 366.32 ± 37 J/K/mol, the “molar heat capacity at constant pressure” value (251.91 K) was 367.13 ± 37 J/K/mol and the “molar heat capacity at constant pressure” value (252.51 K) was 367.96 ± 37 J/K/mol. The “molar heat capacity at constant pressure” value (253.11 K) was 368.8 ± 37 J/K/mol, the “molar heat capacity at constant pressure” value (253.71 K) was 369.64 ± 37 J/K/mol and the “molar heat capacity at constant pressure” value (254.31 K) was 370.52 ± 37 J/K/mol. The “molar heat capacity at constant pressure” value (254.91 K) was 371.43 ± 38 J/K/mol, the “molar heat capacity at constant pressure” value (255.51 K) was 372.34 ± 38 J/K/mol and the “molar heat capacity at constant pressure” value (256.11 K) was 373.31 ± 38 J/K/mol. For the same molecule, the “molar heat capacity at constant pressure” value (256.71 K) was 374.34 ± 38 J/K/mol, the “molar heat capacity at constant pressure” value (257.31 K) was 375.35 ± 38 J/K/mol and the “molar heat capacity at constant pressure” value (257.91 K) was 376.38 ± 38 J/K/mol. For the same molecule, the “molar heat capacity at constant pressure” value (258.51 K) was 377.4 ± 38 J/K/mol, the “molar heat capacity at constant pressure” value (259.11 K) was 378.39 ± 38 J/K/mol and the “molar heat capacity at constant pressure” value (259.71 K) was 379.39 ± 38 J/K/mol. For the same molecule, the “molar heat capacity at constant pressure” value (260.31 K) was 380.35 ± 38 J/K/mol, the “molar heat capacity at constant pressure” value (260.91 K) was 381.29 ± 39 J/K/mol and the “molar heat capacity at constant pressure” value (261.51 K) was 382.27 ± 39 J/K/mol. For the same molecule, the “molar heat capacity at constant pressure” value (262.11 K) was 383.27 ± 39 J/K/mol, the “molar heat capacity at constant pressure” value (262.71 K) was 384.28 ± 39 J/K/mol and the “molar heat capacity at constant pressure” value (263.31 K) was 385.29 ± 39 J/K/mol. The “molar heat capacity at constant pressure” value (263.91 K) was 386.31 ± 39 J/K/mol, the “molar heat capacity at constant pressure” value (264.51 K) was 387.3 ± 39 J/K/mol and the “molar heat capacity at constant pressure” value (265.11 K) was 388.31 ± 39 J/K/mol. For the same molecule, the “molar heat capacity at constant pressure” value (265.71 K) was 389.33 ± 39 J/K/mol, the “molar heat capacity at constant pressure” value (266.32 K) was 390.32 ± 39 J/K/mol and the “molar heat capacity at constant pressure” value (266.92 K) was 391.31 ± 40 J/K/mol. The “molar heat capacity at constant pressure” value (267.52 K) was 392.31 ± 40 J/K/mol, the “molar heat capacity at constant pressure” value (268.12 K) was 393.27 ± 40 J/K/mol and the “molar heat capacity at constant pressure” value (268.72 K) was 394.25 ± 40 J/K/mol. For the same molecule, the “molar heat capacity at constant pressure” value (269.32 K) was 395.21 ± 40 J/K/mol, the “molar heat capacity at constant pressure” value (269.92 K) was 396.11 ± 40 J/K/mol and the “molar heat capacity at constant pressure” value (270.52 K) was 397.07 ± 40 J/K/mol. The “molar heat capacity at constant pressure” value (271.12 K) was 398.06 ± 40 J/K/mol, the “molar heat capacity at constant pressure” value (271.72 K) was 399.04 ± 40 J/K/mol and the “molar heat capacity at constant pressure” value (272.32 K) was 400.09 ± 40 J/K/mol. For the same molecule, the “molar heat capacity at constant pressure” value (272.92 K) was 401.2 ± 41 J/K/mol, the “molar heat capacity at constant pressure” value (273.52 K) was 402.31 ± 41 J/K/mol and the “molar heat capacity at constant pressure” value (274.12 K) was 403.5 ± 41 J/K/mol. For the same molecule, the “molar heat capacity at constant pressure” value (274.72 K) was 404.68 ± 41 J/K/mol, the “molar heat capacity at constant pressure” value (275.32 K) was 405.86 ± 41 J/K/mol and the “molar heat capacity at constant pressure” value (275.92 K) was 407.08 ± 41 J/K/mol. For the same molecule, the “molar heat capacity at constant pressure” value (276.52 K) was 408.31 ± 41 J/K/mol, the “molar heat capacity at constant pressure” value (277.12 K) was 409.49 ± 41 J/K/mol and the “molar heat capacity at constant pressure” value (277.72 K) was 410.7 ± 41 J/K/mol. The “molar heat capacity at constant pressure” value (278.32 K) was 411.89 ± 42 J/K/mol, the “molar heat capacity at constant pressure” value (278.92 K) was 413.04 ± 42 J/K/mol and the “molar heat capacity at constant pressure” value (279.52 K) was 414.18 ± 42 J/K/mol. The “molar heat capacity at constant pressure” value (280.12 K) was 415.29 ± 42 J/K/mol, the “molar heat capacity at constant pressure” value (280.72 K) was 416.38 ± 42 J/K/mol and the “molar heat capacity at constant pressure” value (281.32 K) was 417.47 ± 42 J/K/mol. For the same molecule, the “molar heat capacity at constant pressure” value (281.92 K) was 418.55 ± 42 J/K/mol and the “molar heat capacity at constant pressure” value (282.52 K) was 419.65 ± 42 J/K/mol.
